Experimental data: patent US7915416B2, “Tetrahydroquinolines” (Merck Patent GmbH, priority 2004, dated 2011)

System: cells
Test: cell cycle experiments (G2/M)
Assay type: cell-based

N=C(N)c1ccc(OCCCCCOc2ccc(C(=N)N)cc2)cc1 [pentamidine]
effect on cell cycle: maintain cells in the G2/M cell cycle
